Relative viability data for 1 cell line are collected here from the supplement of paper PMC10307832.

What all share (experiment): relative viability (nuclei count vs DMSO), 5 days (fraction); higher = more cells survive
Compound in experiment [1]: CC(O)(CS(=O)(=O)c1ccc(F)cc1)C(=O)Nc1ccc(C#N)c(C(F)(F)F)c1 [Bicalutamide] + CS(=O)(=O)N1CCN(Cc2cc3nc(-c4cccc5[nH]ncc45)nc(N4CCOCC4)c3s2)CC1 [Pictilisib] (partner 1 µM)
Summed up: (§1)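 Lung cancer cell lines in 1536-well plates got either a single drug or a fixed anchor-drug dose together with five library-drug doses (not always all listed) in √10 steps, by pin tool, on the day after seeding. Nuclei were counted after 5 days, and relative viability is the treated-to-vehicle ratio of nuclei counts. Values are medians of duplicate plates.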

Compound in experiment [2]: CC(O)(CS(=O)(=O)c1ccc(F)cc1)C(=O)Nc1ccc(C#N)c(C(F)(F)F)c1 [Bicalutamide] + CC1(C)CCC(c2ccc(Cl)cc2)=C(CN2CCN(c3ccc(C(=O)NS(=O)(=O)c4ccc(N[C@H](CCN5CCOCC5)CSc5ccccc5)c(S(=O)(=O)C(F)(F)F)c4)cc3)CC2)C1 [Navitoclax] (partner 0.5 µM)
The essentials:
as §1

Compound in experiment [3]: C(C(=O)C(=O)O)Br [Bromopyruvate] + CS(=O)(=O)CCNCc1ccc(-c2ccc3ncnc(Nc4ccc(OCc5cccc(F)c5)c(Cl)c4)c3c2)o1 [Lapatinib] (partner 2 µM)
Summed up:
as §1

Compound in experiment [4]: CC(O)(CS(=O)(=O)c1ccc(F)cc1)C(=O)Nc1ccc(C#N)c(C(F)(F)F)c1 [Bicalutamide] + Nc1nc2[nH]cc(CCc3ccc(C(=O)N[C@@H](CCC(=O)O)C(=O)O)cc3)c2c(=O)[nH]1 [Pemetrexed] (partner 0.2 µM)
Summed up: as §1

For the cell line UMC-11, the relative viability in experiment [1] (first compound 0.08 µM) came to 0.742; in experiment [1] (first compound 0.253 µM), 0.621; in experiment [1] (first compound 0.8 µM), 1.14; in experiment [1] (first compound 2.53 µM) it was 0.768; in experiment [2] (first compound 0.08 µM), 0.328; in experiment [2] (first compound 0.253 µM), 0.25. Besides, the relative viability in experiment [2] (first compound 0.8 µM) amounted to 0.281; in experiment [2] (first compound 2.53 µM), 0.279; in experiment [3] (first compound 1 µM), 1.15; in experiment [3] (first compound 3.162 µM), 0.976; in experiment [3] (first compound 10 µM), 1.11; in experiment [3] (first compound 31.62 µM) it was 0.966. Besides, the relative viability in experiment [3] (first compound 100 µM) came to 1.03; in experiment [4] (first compound 0.08 µM), 0.83; in experiment [4] (first compound 0.253 µM), 0.732; in experiment [4] (first compound 0.8 µM), 0.829; in experiment [4] (first compound 2.53 µM) it was 0.756.
